Reference: US20170112777A1, “PROTEIN-BASED PARTICLES FOR DRUG DELIVERY” (Dana-Farber Cancer Institute, Inc., priority 2014, published 2017)

System: healthy balb/C mice
Test: Tolerability of intraperitoneal pirfenidone dose
Format: in vivo
Conditions: free drug in 10% ethanol in PBS, 200 mg/kg
Method: Pirfenidone was dissolved in a 10% ethanol in PBS solution and administered intraperitoneally to healthy balb/C mice. The intraperitoneal pirfenidone dose was 200 mg/kg. […] However, the same dose was well-tolerated using albumin nanoparticles containing pirfenidone. The nanoparticles were injected twice daily for a total dose of 200 mg/kg per day for 16 days. This example highlights the ability of drug-loaded nanoparticles to slowly release drugs and lower their toxic side effects.

**Q.** Cc1ccc(=O)n(-c2ccccc2)c1 [Pirfenidone, pirfenidone] was tested. Which Tolerability did it give?
**A.** immediate neurological symptoms in the mice as well as death
